Results on four molecules are retold here after patent US20120270928A1, “MICRORNA COMPOUNDS AND METHODS FOR MODULATING MIR-21 ACTIVITY” (REGULUS THERAPEUTICS INC., priority 2011, published 2012).

In data set [1] the test system is UUO model of kidney fibrosis. As to the kind of experiment: UUO model: collagen area fraction of kidney tissue (picrosirius red histology). In kind it is in vivo, mice. To be noted: Table N, 25070 20 mg/kg s.c. The method, then:
(§1) Control treatment groups included UUO only (sham) and UUO with PBS administered subcutaneously. An additional control group included UUO with Tween-MC/20 carrier perorally. 25070 administered subcutaneously at dose of 20 mg/kg at 5 days prior to, 2 days prior to, and 3 days after, the UUO procedure. Irbesartan was administered perorally on daily on days 0 through 7 following the UUO procedure. Animals were sacrificed on Day 10 following the UUO procedure. Kidney tissue was collected for measurement of collagen 1A1 and collagen 3A1 expression.
The ‘collagen area fraction’ is measured histologically through quantitative image processing of the area of kidney tissue that is stained red by the picrosirius red stain; the percent detected as red is normalized by the area of kidney section.

Data set [2] deals with UUO model of kidney fibrosis. Kind of data set: Unilateral ureteral obstruction (UUO) model of kidney fibrosis: kidney collagen 1A1 and collagen 3A1 expression by real-time PCR. Type of data set: in vivo, mice. Conditions: UUO. How it is done:
Unilateral ureteral obstruction (UUO) is a well-established experimental model of renal injury leading to interstitial fibrosis, and thus is used as an experimental model that is reflective of human kidney disease. UUO is induced by surgically ligating a single ureter. As fibrosis is characterized by an increase in collagen, the presence and extent of kidney fibrosis may be determined by measuring collagen content. Both collagen 1A1 (Col 1A1) and collagen 3A1 (Col 3A1) are measured to assess collagen content. Kidney fibrosis may be visualized by staining tissue samples with picro-sirius red to detect increases in collagen content. Kidney fibrosis may also be observed by measuring the amount of hydroxyproline, which is a major component of collagen, in a sample.
The cEt-containing anti-miR-21 compounds found to be active in the luciferase assay were tested in the UUO model of kidney fibrosis. 25919 comprising 2′-MOE and 2′-fluoro modifications is known to inhibit miR-21 activity in vivo and was included as a positive control. Groups of 8 animals each were treated as follows: UUO only, UUO with PBS, or UUO with anti-miR-21 compound. Relative to the day of the UUO procedure, PBS or anti-miR-21 compound was administered at days −3, −1, and +5. Anti-miR-21 compounds were administered at a dose of 20 mg/kg. As the anti-miR compounds were administered prior to the UUO procedure, this dosing regimen is considered a prophylactic treatment. At day 11, animals were sacrificed and kidney was isolated for measurement of collagen expression. Collagen expression was measured by real-time PCR and normalized first to GAPDH and then to the sham control animals.
The UUO study was repeated to confirm the activity of 25070. The anti-miR was administered subcutaneously at a dose of 20 mg/kg.
as §1
Compounds 25220 and 25221, as well as 25923, were tested in the UUO model for their effects on fibrosis. Groups of 8 animals each were treated as follows: sham surgery, UUO with PBS, UUO with 25220, UUO with 25221, or UUO with 25923. Relative to the day of the UUO procedure, PBS or anti-miR-21 compound was administered at days −5, −3, and +3. Anti-miR-21 compounds were administered at a dose of 20 mg/kg. As the anti-miR compounds were administered prior to the UUO procedure, this dosing regimen is considered a prophylactic treatment. At day 10, animals were sacrificed and kidney was isolated for measurement of collagen expression. Collagen expression was measured by real-time PCR and normalized to GAPDH.
In general terms: In qPCR the cycle at which signal appears reflects the starting amount.

Data set [3] deals with ischemia reperfusion injury/nephrectomy (IR/Nx) model. As to the kind of experiment: Ischemia reperfusion injury/nephrectomy (IR/Nx) model: urinary albumin to creatinine ratio. Type of data set: in vivo, mouse. Conditions: for geometric mean of the urinary albumin to creatinine ratio: 20 mg/kg subcutaneously on days 2, 3, 4, and 8, urine on day 9. An excerpt: An ischemia reperfusion injury/nephrectomy (IR/Nx) model is created in the mouse through temporary unilateral clamping of an artery in one kidney, which leads to tubule damage, inflammation, and fibrosis, followed by removal of the second kidney at a later timepoint. In this model, the acute kidney dysfunction phase is useful to test candidate agents for the treatment of acute kidney injury (i.e. up to about the first 5 days), and the later phases of kidney dysfunction are useful to model chronic fibrosis (i.e. after about the first 5 days).
Unilateral IR was induced for a period of 30 minutes. Treatment groups were as follows: sham IR procedure; IR with PBS administered subcutaneously; IR with mismatched control 25109 administered subcutaneously at a dose of 20 mg/kg; IR with anti-miR-21 compound 25070 administered subcutaneously at a dose of 20 mg/kg; and IR with anti-miR-21 compound 25923 administered subcutaneously at a dose of 20 mg/kg. PBS or anti-miR was administered on days 2, 3, 4, and 8 following IR. On day 8, the healthy kidney was removed by nephrectomy from each animal, and animals were sacrificed on day 9. Just prior to sacrifice, urine was collected by direct bladder puncture.
Urinary albumin to creatinine ratio was measured in the urine from each mouse. […] The geometric mean of the albumin to creatinine ratio in each group of mice was 16 μgAlb/mgCr (nephrectomy-only control), 127 μgAlb/mgCr (IR/Nx, PBS control), 140 μgAlb/mgCr (IR/Nx, 25109 control), 40 μgAlb/mgCr (IR/Nx, 25070), and 31 μgAlb/mgCr (IR/Nx, 25923). Blood urea nitrogen and serum creatinine levels were similar across all IR/Nx mice, and were elevated relative to nephrectomy-only control mice (data not shown).

Data set [4] concerns miR-21. Kind of data set: miR-21 luciferase sensor assay in Hela cells. Type of data set: cell-based. The method, then: The compounds were assessed for miR-21 inhibitory activity in a luciferase assay. A microRNA luciferase sensor construct was engineered using pGL3-MCS2 (Promega). The construct was introduced into Hela cells to test the ability of anti-miR compounds to inhibit activity of miR-21. In this assay, miR-21 present in the Hela cells binds to its cognate site(s) in the luciferase sensor construct, and suppresses luciferase expression. When the appropriate anti-miR is introduced into the cells, it binds to miR-21 and relieves suppression of luciferase expression. Thus, in this assay anti-miRs that are effective inhibitors of miR-21 expression will cause an increase in luciferase expression.
Hela cells (ATCC), stably transfected with a luciferase construct engineered to contain a sequence complementary of miR-21, were seeded in T-170 flasks (BD Falcon) at 3.5*10^6 cells/flask. Hela cells were grown in Dulbecco's Modified Eagle Medium with High Glucose (Invitrogen).
Each flask of Hela cells was transfected with 0.5 ug of a phRL sensor plasmid (Promega) expressing Renilla to be used in normalization. Hela cells were transfected using 20 ul Lipofectamine 2000/flask (Invitrogen). After 4 hours of transfection, cells were washed with PBS and trypsinized Hela cells were plated at 40 k/well in 24 well plates (BD Falcon) and left overnight.
Hela cells were transfected with anti-miRs using Lipofectin (Invitrogen) at 2.5 ul Lipofectin/100 nM ASO/ml Opti-MEM I Reduced Serum Medium (Invitrogen) for 4 hours. After ASO transfection, Hela cells were refed with Dulbecco's Modified Eagle Medium with High Glucose (Invitrogen).
Hela cells are passively lysed and luciferase activity measured using the Dual-Luciferase Reporter Assay System (Promega).
The luciferase assay was performed to test the ability of anti-miRs with the nucleoside patterns described herein to inhibit the activity of miR-21. Results were compared to a ‘mock’ treatment, in which cells received no anti-miR treatment. The experiment was repeated and results of two experimental replicates are shown in the following Table B, as the luciferase value normalized to beta-galactosidase activity.
The luciferase assay was performed as described herein to test the ability of anti-miRs in Table F to inhibit the activity of miR-21. Results were compared to a ‘mock’ treatment, in which cells received no anti-miR treatment. The experiment was repeated and results of two experimental replicates are shown in the following Table D, as fold change in luciferase value relative to the mock treatment.

Data set [5] in a line: In vivo stability of compound in kidney tissue after administration to mice. To be noted: kidney tissue after administration.
Data set [6] can be described thus: Ex vivo liver homogenate stability assay (HPLC-TOF MS). To be noted: 24 hours at 37° C.
The mark [7] stands for this setting: Table M, individual animals, 25070 20 mg/kg s.c. 5 and 2 days prior to and 3 days after UUO, irbesartan PO daily days 0-7, sacrifice Day 10, 20 mg/kg.
The mark [8] stands for this setting: 20 mg/kg at days -5, -3, +3, kidney at day 10.

Where “and” joins values, the source holds several entries; their conditions need not be identical. Equal values may be shown once.

As to `CCCCC1=NC2(CCCC2)C(=O)N1Cc1ccc(-c2ccccc2-c2nnn[nH]2)cc1` [irbesartan, reference compound], in data set [1] (group mean, irbesartan PO, Day 10, UUO-PBS 11.1, Tween/MC vehicle 8.0), the “Collagen Area Fraction (%) Mean” value is recorded as 8.0%. The “Collagen Area Fraction (%)” value in data set [1] (individual animals, irbesartan PO daily days 0-7, Day 10, picrosirius red, 20 mg/kg) is 6.105% and 7.481% and 15.877% and 7.914% and 6.614% and 5.706% and 7.798% and 6.154%. Also, in data set [2] (Table M, group mean, 25070 20 mg/kg s.c., irbesartan PO daily days 0-7, Day 10, UUO-PBS 93.2, Tween/MC vehicle 132.4), the “Collagen 3A1 (Normalized Expression) Mean” value is on record as 73.2. In addition, the “Collagen 1A1 (Normalized Expression) Mean” value in data set [2] (Table M, group mean, 25070 20 mg/kg s.c., irbesartan PO daily days 0-7, Day 10, UUO-PBS 129.6, Tween/MC vehicle 150.2) stood at 117.8. Also, in data set [2] (setting [7]), the “Collagen 1A1 (Normalized Expression)” value was 125.4 and 86.7 and 106.6 and 110.7 and 198.3 and 92.2 and 118.1 and 104.1; the “Collagen 3A1 (Normalized Expression)” value was 65.5 and 63.8 and 63.2 and 50.8 and 63.6 and 82.8 and 122.5. In addition, in data set [2] (comparison with irbesartan, sacrifice Day 10), the “reduction in Col3a1 expression (significance)” value is reported as “statistically significant reductions”. In addition, the “reduction in Col1A1 expression relative to saline-treated animals (significance)” value in data set [2] (comparison with irbesartan, sacrifice Day 10, p<0.05 by one-way ANOVA) is “did not yield a statistically significant reduction”.
As for “AEASATCSTGTCSTCAUSAATASAAE [Compound 25109, reference compound]”, the “geometric mean of the urinary albumin to creatinine ratio” value in data set [3] was determined as 140 μgAlb/mgCr.
For the molecule “AECSATCSAGTCSTGAUSAAGCSTAS (antisense ACATCAGTCTGATAAGCTA; cEt and 2'-MOE nucleosides, code letters not given here, further chemistry not given here) [Compound 25923, variation of 25070: 3′-terminal nucleoside is a cEt nucleoside rather than 2′-MOE nucleoside]”, the “inhibition of miR-21 activity in the luciferase assay (in words)” value in data set [4] (Hela cells) was “inhibition of miR-21 in a dose-dependent manner”. Moreover, the “fold change in luciferase value relative to the mock treatment” value in data set [4] (concentration of anti-miR compound 0.2 (unit not given)) is 1.06 fold change; in data set [4] (concentration of anti-miR compound 0.6 (unit not given)), 1.01 fold change; in data set [4] (concentration of anti-miR compound 1.9 (unit not given)), 1.10 fold change; in data set [4] (concentration of anti-miR compound 5.6 (unit not given)), 5.18 fold change; in data set [4] (concentration of anti-miR compound 16.7 (unit not given)), 11.34 fold change; in data set [4] (concentration of anti-miR compound 50.0 (unit not given)) it was 10.81 fold change. Besides, the “collagen 1A1 expression (FIG. 2A, in words)” value in data set [2] (setting [8]) was “reduced collagen 1A1 and collagen 3A1 expression by a stastically significant amount”. Besides, the “collagen 3A1 expression (FIG. 2B, in words)” value in data set [2] (setting [8]) is “reduced collagen 1A1 and collagen 3A1 expression by a stastically significant amount”. Besides, the “reduction in urinary albumin to creatinine ratio (significance)” value in data set [3] (20 mg/kg subcutaneously on days 2, 3, 4, and 8) is “statistically significant reductions”. Besides, the “geometric mean of the urinary albumin to creatinine ratio” value in data set [3] was 31 μgAlb/mgCr.
Take “AECSATCSASGTCSUSGAUSASAGCSUsAE (ACATCAGTCTGATAAGCTA; sugar and backbone modifications) [Compound 25220]”: the “in vivo (kidney) N − 1 (%)” value in data set [5] (compound lacking the 3′-terminal nucleoside) turned out to be 16 ± 6%. Besides, the “in vivo (kidney) N (%)” value in data set [5] (full-length compound) turned out to be 67 ± 16%. For the same molecule, the “ex vivo (liver) N %↓” value in data set [6] (5 μM oligonucleotide in liver homogenate (50 mg tissue per ml), full-length compound) was 3%. For the same molecule, the “ex vivo (liver) % Endo” value in data set [6] (5 μM oligonucleotide in liver homogenate) came out at 3%. In data set [6] (5 μM oligonucleotide in liver homogenate, compound lacking the 3′-terminal nucleoside), the “ex vivo (liver) % N − 1” value is 0%.
